Measured values as given in patent US10195179B2, “Spiro-lactam NMDA receptor modulators and uses thereof” (Aptinyx Inc., priority 2016, dated 2019).

Key:
[1] = system: rat Schaffer collateral-evoked NMDA fEPSPs recorded in CA1 pyramidal neurons; experiment: Long-term potentiation in hippocampal slices; type: cell-based; conditions: bath application 100 nm, 500 nm, 2 μM
Method: Assays were conducted as described in Zhang et al. (Zhang, X. L., Sullivan, J. A., Moskal., J. R., Stanton, P. K., 2008. A NMDA receptor glycine site partial agonist, GLYX-13, simultaneously enhances LTP and reduces LTD at Schaffer collateral-CA1 synapses in hippocampus. Neuropharmacology, 55, 1238-50). See also Burgdorf, J, Zhang X L, Nicholson K L, Balster R L, Leander J D, Stanton P K, Gross A L, Kroes R A, Moskal J R (2013), GLYX-13, a NMDA receptor glycine-site functional partial agonist, induces antidepressant-like effects without ketamine-like side effects, Neuropsychopharmacology: official publication of the American College of Neuropsychopharmacology 38:729-742. […] A bipolar tungsten ystimulating electrode (FHC Co.) was placed on Schaffer collateral-commissural fibers in CA3 stratum radiatum, and constant current stimulus intensity adjusted to evoke approximately half-maximal fEPSPs once each 30 s ([…]; 100 μs duration). fEPSP slope was measured before and after induction of LTP by linear interpolation from 20 to 80% of maximum negative deflection, and slopes confirmed to be stable to within ±10% for at least 15 min before commencing an experiment. […] The signals were recorded using a Multiclamp 700B amplifier and digitized with a Digidata 1322 (Axon Instruments, USA).

SD rats = experiment: Novelty-induced hypophagia (NIH) test; type: in vivo, rat; conditions: 1-100 μg/kg PO, 1 h before test
Text: This Example relates to the assessment of the anxiolytic effect of treatment in the stress-induced anxiety model, novelty induced hypophagia. This assay is also sensitive to the rapid acting antidepressants ketamine and GLYX-13 (Li et al., “mTOR-dependent synapse formation underlies the rapid antidepressant effects of NMDA antagonists,” Science 329:959-964, 2010; and Burgdorf et al., 2013). See also Bodnoff et al., “A comparison of the effects of diazepam versus several typical and atypical anti-depressant drugs in an animal model of anxiety,” Psychopharmacology, 97:277-279, 1989.
Testing was conducted as described by (Burgdorf et al., 2013). […] Animals were food deprived overnight before testing, and lab chow was placed in the center chamber of an open field (40×40×20 cm) for 10 min under dim red lighting. Between testing each animal, feces and urine were removed from the apparatus. After NIH testing, the latency to eat in the animal's home cage was determined as a control to ensure the effect on eating is specific to the novel environment. Animals were videotaped, and latency (sec) for the animal to take the first bite of food was manually scored offline.
A single point per dose group that was 2 or more standard deviations from the mean was considered an outlier and was excluded from the data analysis. […]

[2] = Plasma protein binding assay, rat; type: in vitro ADME; conditions: read-out: Plasma Protein binding (% Bound) Plasma rat (converted)
Method: (§1) Bound drug concentration in the brain was also investigated, and plasma protein binding assays were conducted. The following table (% bound) indicates results for Compound AA and Compound BB.

[3] = Plasma protein binding assay, human; type: in vitro ADME; conditions: read-out: Plasma Protein binding (% Bound) Plasma human (converted)
Method: as §1

[4] = Microsomal stability, rat; type: in vitro ADME; conditions: rat microsomes
Method: (§2) Microsomal stability for Compound AA and Compound BB was investigated. The following table indicates the percent of Compound AA and Compound BB remaining after 60 minutes.

Plasma stability, rat = type: in vitro ADME
Method: Plasma stability for Compound AA and Compound BB was investigated. The following table indicates the percent of Compound AA and Compound BB remaining after 60 minutes.

[5] = Microsomal stability, human; type: in vitro ADME; conditions: human microsomes
Method: as §2

With `C[C@@H](O)[C@@H](C(N)=O)N1C[C@@]2(CCCN2S(C)(=O)=O)C1=O` [Compound BB, (2S,3R)-3-hydroxy-2-((S)-5-(methylsulfonyl)-1-oxo-2,5-diazaspiro[3,4]octan-2-yl)butanamide] the “long-term potentiation after high frequency stimulation” value [1] was “increased long-term potentiation”, the “latency to eat in the novelty-induced hypophagia (NIH) test” value (SD rats) was “produces an anxiolytic effect” and the fraction unbound [2] was 0.65. For the same molecule, the fraction unbound [3] was 0.789, the “Microsomal Stability (% remaining at 60 min) Rat” value [4] was 96% and the “Plasma Stability (% remaining at 60 min) Rat” value (Plasma stability, rat) was 86%. For the same molecule, the “Microsomal Stability (% remaining at 60 min) Human” value [5] was 92%.
